This data set in a line: Stability studies of dissolved products versus temperature. The class given is physicochemical. The settings on record: in aqueous solution.

SMILES strings stand for the structures.

Regarding `CCN1CCN(C(=O)N[C@@H](C(=O)N[C@@H]2C(=O)N3[C@@H]2SC(C)(C)[C@@H]3C(=O)O)c2ccccc2)C(=O)C1=O` [Piperacillin], the “Inflexion point of degradation of dissolved product with temperature” value is “around 15 °C”. In the case of `C[C@]1(Cn2ccnn2)[C@H](C(=O)O)N2C(=O)C[C@H]2S1(=O)=O` [Tazobactam], the “Inflexion point of degradation of dissolved product with temperature” value was “around 15 °C”.

Values taken from patent US20090186865A1, “Lyophilization Process” (SANDOZ AG, priority 2005, published 2009).
